Source: publication PMC13266999, “Designing Antibiotics with Inherent Resistance to Efflux as a Strategy to Revive Discovery against Multidrug-Resistant Pathogens” (Journal of Medicinal Chemistry, 2026)
Where “and” joins values, the source holds several entries; their conditions need not be identical. Identical values can stand only once.

What was measured:
[1] = test system: K. pneumoniae; assay: Mutation frequency and agar MIC; format: cell-based; conditions: M6
[2] = target: T1, 5-HT transporter (h) (Homo sapiens, UniProt P31645); assay: SafetyScreen44; conditions: antagonist radioligand, specific binding, 1.0E-05 M
T1 construct: purchased Eurofins (SafetyScreen44)
Protocol: (§1) Off-target pharmacology was evaluated using the Eurofins SafetyScreen44 in vitro panel. […] Binding assays were performed using radioligand displacement, and enzyme or uptake assays measured inhibition of control activity using validated detection methods (scintillation counting, fluorimetry or photometry). Responses were expressed as percent inhibition of control binding or activity. Based on Eurofins interpretation guidelines, effects ≥50% were considered significant, effects between 25% and 50% weak to moderate, and effects <25% were not considered biologically relevant.

[3] = target: T2, 5-HT1A (h) (Homo sapiens, UniProt P08908); assay: SafetyScreen44; conditions: agonist radioligand, specific binding, 1.0E-05 M
T2 construct: purchased Eurofins (SafetyScreen44)
Protocol: as §1

[4] = target: T3, 5-HT2A (h) (Homo sapiens, UniProt P28223); assay: SafetyScreen44; conditions: agonist radioligand, specific binding, 1.0E-05 M
T3 construct: purchased Eurofins (SafetyScreen44)
Protocol: as §1

[5] = target: T4, 5-HT2B (h) (Homo sapiens, UniProt P41595); assay: SafetyScreen44; conditions: agonist radioligand, specific binding, 1.0E-05 M
T4 construct: purchased Eurofins (SafetyScreen44)
T4 sequence (P41595 whole entry): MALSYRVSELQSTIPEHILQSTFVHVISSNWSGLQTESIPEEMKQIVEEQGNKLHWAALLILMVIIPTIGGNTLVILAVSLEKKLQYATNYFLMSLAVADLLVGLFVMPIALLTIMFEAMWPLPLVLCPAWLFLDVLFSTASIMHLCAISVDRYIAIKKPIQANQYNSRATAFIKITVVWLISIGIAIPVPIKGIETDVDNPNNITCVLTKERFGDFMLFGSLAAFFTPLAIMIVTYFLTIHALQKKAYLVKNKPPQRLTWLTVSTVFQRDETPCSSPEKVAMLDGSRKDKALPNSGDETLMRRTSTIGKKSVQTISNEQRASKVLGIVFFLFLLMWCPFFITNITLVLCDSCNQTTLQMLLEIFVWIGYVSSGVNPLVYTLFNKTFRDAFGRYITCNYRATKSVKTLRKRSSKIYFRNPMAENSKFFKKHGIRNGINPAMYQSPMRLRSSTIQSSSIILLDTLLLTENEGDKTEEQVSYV
Protocol: as §1

[6] = target: T5, A2A (h) (Homo sapiens, UniProt P29274); assay: SafetyScreen44; conditions: agonist radioligand, specific binding, 1.0E-05 M
T5 construct: purchased Eurofins (SafetyScreen44)
T5 sequence (P29274 whole entry): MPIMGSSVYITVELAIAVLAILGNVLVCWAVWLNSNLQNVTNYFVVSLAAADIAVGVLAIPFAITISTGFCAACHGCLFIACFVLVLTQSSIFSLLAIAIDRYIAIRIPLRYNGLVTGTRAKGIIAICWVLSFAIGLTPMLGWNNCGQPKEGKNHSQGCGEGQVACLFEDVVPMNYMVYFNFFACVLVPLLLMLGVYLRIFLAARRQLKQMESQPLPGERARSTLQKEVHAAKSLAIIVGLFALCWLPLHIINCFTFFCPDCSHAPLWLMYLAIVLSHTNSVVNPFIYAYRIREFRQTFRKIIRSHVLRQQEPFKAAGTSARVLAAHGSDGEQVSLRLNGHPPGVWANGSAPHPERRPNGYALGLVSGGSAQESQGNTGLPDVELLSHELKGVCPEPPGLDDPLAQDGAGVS
Protocol: as §1

[7] = test system: BZD (central); assay: SafetyScreen44; conditions: agonist radioligand, specific binding, 1.0E-05 M
Protocol: as §1

[8] = target: T6, CB1 (h) (Homo sapiens, UniProt P21554); assay: SafetyScreen44; conditions: agonist radioligand, specific binding, 1.0E-05 M
T6 construct: purchased Eurofins (SafetyScreen44 panel) assay 36
Protocol: as §1

[9] = target: T7, CB2 (h) (Homo sapiens, UniProt P34972); assay: SafetyScreen44; conditions: agonist radioligand, specific binding, 1.0E-05 M
T7 construct: purchased Eurofins (SafetyScreen44)
Protocol: as §1

[10] = target: T8, CCK1 (CCKA) (h) (Homo sapiens, UniProt P32238); assay: SafetyScreen44; conditions: agonist radioligand, specific binding, 1.0E-05 M
T8 construct: purchased Eurofins (SafetyScreen44)
T8 sequence (P32238 whole entry): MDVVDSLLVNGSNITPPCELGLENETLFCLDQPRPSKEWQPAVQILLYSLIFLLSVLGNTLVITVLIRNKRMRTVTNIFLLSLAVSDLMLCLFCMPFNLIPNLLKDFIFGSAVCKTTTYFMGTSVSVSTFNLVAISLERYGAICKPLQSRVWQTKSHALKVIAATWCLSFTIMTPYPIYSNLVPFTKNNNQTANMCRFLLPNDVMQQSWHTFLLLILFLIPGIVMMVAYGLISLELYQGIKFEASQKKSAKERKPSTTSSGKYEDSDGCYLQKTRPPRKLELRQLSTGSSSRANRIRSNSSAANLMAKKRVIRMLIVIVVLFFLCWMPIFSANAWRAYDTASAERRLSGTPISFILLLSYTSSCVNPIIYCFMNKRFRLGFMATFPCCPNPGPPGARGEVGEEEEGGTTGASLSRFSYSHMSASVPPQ
Protocol: as §1

[11] = test system: Ca2+ channel (L, dihydropyridine site); assay: SafetyScreen44; conditions: antagonist radioligand, specific binding, 1.0E-05 M
Protocol: as §1

[12] = target: T9, D2S (h) (Homo sapiens, UniProt P14416); assay: SafetyScreen44; conditions: agonist radioligand, specific binding, 1.0E-05 M
T9 construct: purchased Eurofins (SafetyScreen44)
Protocol: as §1

[13] = target: T10, GR (h) (Homo sapiens, UniProt P04150); assay: SafetyScreen44; conditions: agonist radioligand, specific binding, 1.0E-05 M
T10 construct: purchased Eurofins (SafetyScreen44)
Protocol: as §1

[14] = target: T11, H2 (h) (Homo sapiens, UniProt P25021); assay: SafetyScreen44; conditions: antagonist radioligand, specific binding, 1.0E-05 M
T11 construct: purchased Eurofins (SafetyScreen44)
Protocol: as §1

[15] = test system: KV channel; assay: SafetyScreen44; conditions: antagonist radioligand, specific binding, 1.0E-05 M
Protocol: as §1

[16] = target: T12, M1 (h) (Homo sapiens, UniProt P11229); assay: SafetyScreen44; conditions: antagonist radioligand, specific binding, 1.0E-05 M
T12 construct: purchased Eurofins (SafetyScreen44)
Protocol: as §1

[17] = target: T13, M2 (h) (Homo sapiens, UniProt P08172); assay: SafetyScreen44; conditions: antagonist radioligand, specific binding, 1.0E-05 M
T13 construct: purchased Eurofins (SafetyScreen44)
T13 sequence (P08172 whole entry): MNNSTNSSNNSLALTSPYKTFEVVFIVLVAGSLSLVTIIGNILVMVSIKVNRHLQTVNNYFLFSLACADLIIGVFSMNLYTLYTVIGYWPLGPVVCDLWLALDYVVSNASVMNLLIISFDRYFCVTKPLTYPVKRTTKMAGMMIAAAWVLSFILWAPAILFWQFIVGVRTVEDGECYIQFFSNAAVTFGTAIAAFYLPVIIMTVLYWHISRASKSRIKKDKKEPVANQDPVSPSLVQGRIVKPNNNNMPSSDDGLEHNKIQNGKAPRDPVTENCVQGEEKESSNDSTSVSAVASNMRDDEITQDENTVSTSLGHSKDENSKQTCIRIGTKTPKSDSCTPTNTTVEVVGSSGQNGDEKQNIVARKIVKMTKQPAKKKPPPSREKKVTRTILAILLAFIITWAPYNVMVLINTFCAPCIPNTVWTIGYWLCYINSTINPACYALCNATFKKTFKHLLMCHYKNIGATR
Protocol: as §1

[18] = target: T14, N neuronal alpha 4beta 2 (h) (Homo sapiens, UniProt P17787+P43681); assay: SafetyScreen44; conditions: agonist radioligand, specific binding, 1.0E-05 M
T14 construct: purchased Eurofins (SafetyScreen44)
Protocol: as §1

[19] = test system: NMDA; assay: SafetyScreen44; conditions: antagonist radioligand, specific binding, 1.0E-05 M
Protocol: as §1

[20] = target: T15, Potassium Channel hERG (human) (Homo sapiens, UniProt Q12809); assay: SafetyScreen44; conditions: [3H] Dofetilide, specific binding, 1.0E-05 M
T15 construct: purchased Eurofins (SafetyScreen44)
T15 sequence (Q12809 whole entry): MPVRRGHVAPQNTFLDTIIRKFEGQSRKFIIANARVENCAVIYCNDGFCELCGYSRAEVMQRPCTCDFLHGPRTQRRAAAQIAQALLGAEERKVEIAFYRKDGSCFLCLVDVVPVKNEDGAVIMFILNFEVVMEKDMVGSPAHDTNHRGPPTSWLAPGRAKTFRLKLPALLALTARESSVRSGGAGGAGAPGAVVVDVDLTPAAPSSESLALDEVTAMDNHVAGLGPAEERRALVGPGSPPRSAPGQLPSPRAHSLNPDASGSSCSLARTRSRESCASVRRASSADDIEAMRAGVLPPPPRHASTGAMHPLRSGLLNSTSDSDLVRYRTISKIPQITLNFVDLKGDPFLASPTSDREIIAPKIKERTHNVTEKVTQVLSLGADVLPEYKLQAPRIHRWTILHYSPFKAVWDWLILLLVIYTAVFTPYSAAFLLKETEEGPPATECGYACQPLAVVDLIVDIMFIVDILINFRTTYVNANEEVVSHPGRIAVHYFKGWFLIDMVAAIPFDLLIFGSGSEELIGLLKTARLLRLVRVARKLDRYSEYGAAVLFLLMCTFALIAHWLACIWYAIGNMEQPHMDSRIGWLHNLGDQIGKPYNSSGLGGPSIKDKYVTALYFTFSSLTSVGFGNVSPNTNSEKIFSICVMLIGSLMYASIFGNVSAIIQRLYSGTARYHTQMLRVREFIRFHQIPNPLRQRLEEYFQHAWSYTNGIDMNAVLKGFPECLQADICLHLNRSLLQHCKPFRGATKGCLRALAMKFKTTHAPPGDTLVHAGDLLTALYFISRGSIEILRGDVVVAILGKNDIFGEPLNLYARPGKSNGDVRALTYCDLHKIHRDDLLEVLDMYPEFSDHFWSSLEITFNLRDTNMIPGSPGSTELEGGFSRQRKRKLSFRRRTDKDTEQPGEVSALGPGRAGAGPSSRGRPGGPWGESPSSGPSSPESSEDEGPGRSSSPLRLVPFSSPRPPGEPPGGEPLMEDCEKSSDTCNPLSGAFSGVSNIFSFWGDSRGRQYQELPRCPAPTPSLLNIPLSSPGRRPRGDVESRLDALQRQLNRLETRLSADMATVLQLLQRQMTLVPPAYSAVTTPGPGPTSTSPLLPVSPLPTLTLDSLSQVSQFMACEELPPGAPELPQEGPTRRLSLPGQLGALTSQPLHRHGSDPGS
Protocol: as §1

[21] = target: T16, alpha 1A (h) (Homo sapiens, UniProt P35348); assay: SafetyScreen44; conditions: antagonist radioligand, specific binding, 1.0E-05 M
T16 construct: purchased Eurofins (SafetyScreen44)
Protocol: as §1

[22] = target: T17, alpha 2A (h) (Homo sapiens, UniProt P08913); assay: SafetyScreen44; conditions: antagonist radioligand, specific binding, 1.0E-05 M
T17 construct: purchased Eurofins (SafetyScreen44)
T17 sequence (P08913 whole entry): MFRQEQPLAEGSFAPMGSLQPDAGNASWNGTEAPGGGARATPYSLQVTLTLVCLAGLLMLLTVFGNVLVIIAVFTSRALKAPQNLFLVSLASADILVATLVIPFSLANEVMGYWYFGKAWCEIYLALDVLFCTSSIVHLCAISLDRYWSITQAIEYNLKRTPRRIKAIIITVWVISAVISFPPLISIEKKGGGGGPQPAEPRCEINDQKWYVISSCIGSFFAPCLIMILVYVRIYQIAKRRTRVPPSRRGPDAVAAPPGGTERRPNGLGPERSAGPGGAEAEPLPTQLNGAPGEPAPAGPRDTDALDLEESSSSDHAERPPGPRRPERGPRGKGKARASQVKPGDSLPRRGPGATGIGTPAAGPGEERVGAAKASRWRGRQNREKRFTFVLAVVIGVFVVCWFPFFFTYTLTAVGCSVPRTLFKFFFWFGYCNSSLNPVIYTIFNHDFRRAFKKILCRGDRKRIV
Protocol: as §1

[23] = target: T18, beta 1 (h) (Homo sapiens, UniProt P08588); assay: SafetyScreen44; conditions: agonist radioligand, specific binding, 1.0E-05 M
T18 construct: purchased Eurofins (SafetyScreen44)
T18 sequence (P08588 whole entry): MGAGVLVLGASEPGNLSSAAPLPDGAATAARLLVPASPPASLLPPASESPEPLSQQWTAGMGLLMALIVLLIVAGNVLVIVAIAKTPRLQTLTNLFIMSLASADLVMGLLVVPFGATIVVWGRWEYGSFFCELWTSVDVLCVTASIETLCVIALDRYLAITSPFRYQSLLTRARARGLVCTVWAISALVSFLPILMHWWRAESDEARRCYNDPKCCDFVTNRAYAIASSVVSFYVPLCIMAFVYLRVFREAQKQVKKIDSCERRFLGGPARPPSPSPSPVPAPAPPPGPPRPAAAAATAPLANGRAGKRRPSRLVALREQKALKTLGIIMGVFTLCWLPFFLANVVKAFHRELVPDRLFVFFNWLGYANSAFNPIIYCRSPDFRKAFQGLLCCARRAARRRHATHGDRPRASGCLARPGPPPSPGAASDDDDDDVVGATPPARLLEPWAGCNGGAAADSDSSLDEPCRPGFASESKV
Protocol: as §1

[24] = target: T19, beta 2 (h) (Homo sapiens, UniProt P07550); assay: SafetyScreen44; conditions: antagonist radioligand, specific binding, 1.0E-05 M
T19 construct: purchased Eurofins (SafetyScreen44)
Protocol: as §1

[25] = target: T20, dopamine transporter (h) (Homo sapiens, UniProt Q01959); assay: SafetyScreen44; conditions: antagonist radioligand, specific binding, 1.0E-05 M
T20 construct: purchased Eurofins (SafetyScreen44)
T20 sequence (Q01959 whole entry): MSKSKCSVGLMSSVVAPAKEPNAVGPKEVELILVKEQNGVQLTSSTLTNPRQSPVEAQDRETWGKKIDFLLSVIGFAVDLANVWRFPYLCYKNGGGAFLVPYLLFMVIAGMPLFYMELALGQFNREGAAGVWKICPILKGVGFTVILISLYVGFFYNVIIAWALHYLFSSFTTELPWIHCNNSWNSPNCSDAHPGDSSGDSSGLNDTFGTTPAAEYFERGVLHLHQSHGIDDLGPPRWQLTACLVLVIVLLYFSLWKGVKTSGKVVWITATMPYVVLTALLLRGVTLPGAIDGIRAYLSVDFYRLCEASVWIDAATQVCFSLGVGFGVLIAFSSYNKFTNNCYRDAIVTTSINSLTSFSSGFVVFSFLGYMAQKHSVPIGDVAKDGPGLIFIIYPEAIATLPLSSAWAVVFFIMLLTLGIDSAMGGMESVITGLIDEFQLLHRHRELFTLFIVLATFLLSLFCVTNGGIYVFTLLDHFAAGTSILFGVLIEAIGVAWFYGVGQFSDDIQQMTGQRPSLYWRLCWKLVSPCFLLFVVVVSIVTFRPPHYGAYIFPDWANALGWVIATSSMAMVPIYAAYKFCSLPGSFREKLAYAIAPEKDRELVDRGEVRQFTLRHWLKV
Protocol: as §1

[26] = target: T21, mu (MOP) (h) (Homo sapiens, UniProt P35372); assay: SafetyScreen44; conditions: agonist radioligand, specific binding, 1.0E-05 M
T21 construct: purchased Eurofins (SafetyScreen44)
Protocol: as §1

[27] = target: T22, norepinephrine transporter (h) (Homo sapiens, UniProt P23975); assay: SafetyScreen44; conditions: antagonist radioligand, specific binding, 1.0E-05 M
T22 construct: purchased Eurofins (SafetyScreen44)
Protocol: as §1

[28] = target: CYP2B6 (Homo sapiens, UniProt P20813); assay: CYP inhibition; conditions: HLM, bupropion substrate
CYP2B6, sequence (P20813 whole entry): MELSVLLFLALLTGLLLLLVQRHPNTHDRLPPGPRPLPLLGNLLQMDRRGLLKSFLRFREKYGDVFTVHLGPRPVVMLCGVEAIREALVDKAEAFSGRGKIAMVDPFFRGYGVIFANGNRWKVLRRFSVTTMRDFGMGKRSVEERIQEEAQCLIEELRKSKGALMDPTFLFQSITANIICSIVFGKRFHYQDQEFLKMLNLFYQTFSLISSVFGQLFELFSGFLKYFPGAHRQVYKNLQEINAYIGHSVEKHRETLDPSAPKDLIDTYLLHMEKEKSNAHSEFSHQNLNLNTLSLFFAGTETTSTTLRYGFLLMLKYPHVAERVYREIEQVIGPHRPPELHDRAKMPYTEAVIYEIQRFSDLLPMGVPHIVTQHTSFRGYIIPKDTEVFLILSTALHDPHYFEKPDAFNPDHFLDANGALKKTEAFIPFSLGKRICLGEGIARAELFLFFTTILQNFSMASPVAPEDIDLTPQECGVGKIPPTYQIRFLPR
Protocol: (§2) Cytochrome P450 inhibition was assessed in vitro using human recombinant enzymes in microsomal preparations. […] Enzyme activity was quantified by monitoring formation of substrate-specific metabolites, and percent inhibition was calculated relative to vehicle control.

[29] = target: CYP2C8 (Homo sapiens, UniProt P10632); assay: CYP inhibition; conditions: HLM, amodiaquine substrate
Protocol: as §2

[30] = target: CYP2C9 (Homo sapiens, UniProt P11712); assay: CYP inhibition; conditions: HLM, diclofenac substrate
Protocol: as §2

[31] = Maximum tolerated dose study; conditions: for B.W.: animals N 1-3;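 as to all read-outs here: male ICR mice given oral doses under a stepwise escalation scheme to find the highest tolerated dose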
[32] = test system: E. faecium; assay: Mutation frequency and agar MIC; format: cell-based; conditions: NCTC 12204
[33] = PO 100 mg/kg, 72 hrs after final dose, 100 mg/kg
[34] = PO 100 mg/kg, Pre-dose, 100 mg/kg
[35] = PO 200 mg/kg, 72 hrs after final dose, 200 mg/kg
[36] = PO 200 mg/kg, Pre-dose, 200 mg/kg
[37] = PO 400 mg/kg, 72 hrs after final dose, 400 mg/kg
[38] = PO 400 mg/kg, Pre-dose, 400 mg/kg

C[C@H]1COc2c(N3CC[C@@H](Nc4ncccn4)C3)c(F)cc3c(=O)c(C(=O)O)cn1c23 [Compound 46, (S)-9-Fluoro-3-methyl-7-oxo-10-((R)-3-(pyrimidin-2-ylamino)pyrrolidin-1-yl)-2,3-dihydro-7H-[1,4]oxazino[2,3,4-ij]quinoline-6-carboxylic acid]
Agar MIC [1]: 0.5 µg/mL
% Inhibition [2]: -16.9663%
% Inhibition [3]: -3.77%
% Inhibition [4]: -8.881%
% Inhibition [5]: 5.374%
% Inhibition [6]: 53.628% and 53.6%
% Inhibition [7]: -44.8289%
% Inhibition [8]: 1.857%
% Inhibition [9]: 0%
% Inhibition [10]: -2.038%
% Inhibition [11]: 6.049%
inhibition at 10 µM [12]: -7.81%
% Inhibition [13]: 3.456%
% Inhibition [14]: -40.1709%
% Inhibition [15]: -4.644%
% Inhibition [16]: 3.129%
% Inhibition [17]: 1.066%
inhibition at 10 µM [18]: -41.8%
% Inhibition [19]: 12.6124%
% Inhibition [20]: -0.2461%
inhibition at 10 µM [21]: 11.5%
inhibition at 10 µM [22]: 4.48%
% Inhibition [23]: 1.921%
% Inhibition [24]: 11.3086%
% Inhibition [25]: 10.0257%
% Inhibition [26]: 6.535%
% Inhibition [27]: -6.471%
inhibition at 10 µM ([28]; human, human liver microsomes, probe bupropion, CYP2B6 inhibition): -1.3%
CYP2C8 inhibition ([29]; 10 μM): 3.1%
CYP2C9 inhibition ([30]; 10 μM): 12.8%
B.W. [31, 33]: 25 and 27
B.W. [31, 34]: 24 and 25
B.W. [31, 35]: 26 and 27
B.W. [31, 36]: 24 and 23
B.W. [31, 37]: 26 and 22 and 24
B.W. [31, 38]: 21 and 20 and 22

Cc1cc(C)nc(N[C@@H]2CCN(c3c(F)cc4c(=O)c(C(=O)O)cn5c4c3OC[C@@H]5C)C2)n1 [Compound 50, (S)-10-((R)-3-((4,6-Dimethylpyrimidin-2-yl)amino)pyrrolidin-1-yl)-9-fluoro-3-methyl-7-oxo-2,3-dihydro-7H-[1,4]oxazino[2,3,4-ij]quinoline-6-carboxylic acid]
Agar MIC [32]: 2 µg/mL
inhibition at 10 µM [2]: 2.23%
inhibition at 10 µM [3]: -2.72%
inhibition at 10 µM [4]: 41.5%
inhibition at 10 µM [5]: 9.78%
% Inhibition [6]: 82.8099% and 82.8%
% Inhibition [7]: 22.3569%
inhibition at 10 µM [8]: -8.28%
inhibition at 10 µM [9]: 0.988%
inhibition at 10 µM [10]: -39.6%
% Inhibition [11]: -7.1517%
inhibition at 10 µM [12]: -3.93%
inhibition at 10 µM [13]: 9.19%
inhibition at 10 µM [14]: -9.63%
% Inhibition [15]: 3.113%
inhibition at 10 µM [16]: 25.5%
inhibition at 10 µM [17]: 62.8%
inhibition at 10 µM [18]: 0.422%
% Inhibition [19]: -5.137%
% Inhibition [20]: -1.132%
inhibition at 10 µM [21]: 6.96%
inhibition at 10 µM [22]: 23.5%
inhibition at 10 µM [23]: 12.5%
inhibition at 10 µM [24]: -4.15%
inhibition at 10 µM [25]: 22.6%
inhibition at 10 µM [26]: 0.499%
inhibition at 10 µM [27]: 2.06%
CYP2B6 inhibition ([28]; 10 μM): 4.821% and < 10%
inhibition at 10 µM ([29]; human, human liver microsomes, probe amodiaquine, CYP2C8 inhibition): 13.4%
inhibition at 10 µM ([30]; human, human liver microsomes, probe diclofenac, CYP2C9 inhibition): 16.8%
Response (death/test) ([31]; PO 100 mg/kg, 1 hr after 1st dosing): 0/3
Response (death/test) ([31]; PO 100 mg/kg, 1 hr after 2nd dosing): 0/3
Response (death/test) ([31]; PO 100 mg/kg, 1 hr after 3rd dosing): 0/3
Response (death/test) ([31]; PO 100 mg/kg, 2 hrs after 3rd dosing): 0/3
Response (death/test) ([31]; PO 100 mg/kg, 6 hrs after 1st dosing): 0/3
Response (death/test) ([31]; PO 100 mg/kg, 6 hrs after 2nd dosing): 0/3
Response (death/test) ([31]; PO 100 mg/kg, 24 hrs after 3rd dosing): 0/3
Response (death/test) ([31]; PO 100 mg/kg, 48 hrs after 3rd dosing): 0/3
Response (death/test) ([31]; PO 100 mg/kg, 72 hrs after 3rd dosing): 0/3
B.W. [31, 33]: 24 and 25
B.W. [31, 34]: 24 and 23
Response (death/test) ([31]; PO 200 mg/kg, 1 hr after 1st dosing): 0/3
Response (death/test) ([31]; PO 200 mg/kg, 1 hr after 2nd dosing): 0/3
Response (death/test) ([31]; PO 200 mg/kg, 1 hr after 3rd dosing): 0/3
Response (death/test) ([31]; PO 200 mg/kg, 2 hrs after 3rd dosing): 0/3
Response (death/test) ([31]; PO 200 mg/kg, 6 hrs after 1st dosing): 0/3
Response (death/test) ([31]; PO 200 mg/kg, 6 hrs after 2nd dosing): 0/3
Response (death/test) ([31]; PO 200 mg/kg, 24 hrs after 3rd dosing): 0/3
Response (death/test) ([31]; PO 200 mg/kg, 48 hrs after 3rd dosing): 0/3
Response (death/test) ([31]; PO 200 mg/kg, 72 hrs after 3rd dosing): 0/3
B.W. [31, 35]: 25 and 28
B.W. [31, 36]: 23 and 24
Response (death/test) ([31]; PO 400 mg/kg, 1 hr after 1st dosing): 0/3
Response (death/test) ([31]; PO 400 mg/kg, 1 hr after 2nd dosing): 0/3
Response (death/test) ([31]; PO 400 mg/kg, 1 hr after 3rd dosing): 0/3
Response (death/test) ([31]; PO 400 mg/kg, 2 hrs after 3rd dosing): 0/3
Response (death/test) ([31]; PO 400 mg/kg, 6 hrs after 1st dosing): 0/3
Response (death/test) ([31]; PO 400 mg/kg, 6 hrs after 2nd dosing): 0/3
Response (death/test) ([31]; PO 400 mg/kg, 24 hrs after 3rd dosing): 0/3
Response (death/test) ([31]; PO 400 mg/kg, 48 hrs after 3rd dosing): 0/3
Response (death/test) ([31]; PO 400 mg/kg, 72 hrs after 3rd dosing): 0/3
B.W. [31, 37]: 25 and 23
B.W. [31, 38]: 20 and 21

C[C@H]1COc2c(N3CCN(C)CC3)c(F)cc3c(=O)c(C(=O)O)cn1c23 [Levofloxacin, (S)-9-Fluoro-3-methyl-10-(4-methylpiperazin-1-yl)-7-oxo-2,3-dihydro-7H-[1,4]oxazino[2,3,4-ij]quinoline-6-carboxylic acid, reference compound]
Agar MIC [32]: 1 µg/mL
Agar MIC [1]: 0.03 µg/mL
